# Values quoted from earlier work as cited in patent US6194433A, “Sexual dysfunction in females” (Cutler; Neal R., priority 1998, dated 2001).
# What was measured:
# [1] = following coronary artery ligation; Jones et al., Br. J. Pharmacol. 108:1111 (1993)
# [2] = Perreault et al., Br. J Pharmacol. 106:511 (1992)
# phosphodiesterase = settings: Frodsham et al., Eur. J. Pharmacol. 211:383 (1992)
# [3] = Kelso et al., J Cardiovasc. Pharmacol. 25:376 (1995)
# phosphodiesterase III = settings: Gristwood et al., Br. J. Pharmacol. 105:985 (1992)
# [4] = not given; remark: listed apart in the source
SMILES,effect on mortality or arrhythmias [1],effect in patients with end-stage failure [2],phosphodiesterase inhibition as relevant to efficacy in heart failure (phosphodiesterase),usefulness in the treatment of heart failure [3],inhibition of phosphodiesterase III (phosphodiesterase III),solubility in organic solvents (many organic solvents),water solubility (water),time of peak plasma concentrations of flosequinan ([4]; following oral administration),"mean absolute bioavailability ([4]; oral, single dose of fifty milligrams)",time of peak metabolite plasma levels ([4]; following oral dosage of flosequinan)
"Cn1cc([S+](C)[O-])c(=O)c2ccc(F)cc21 (stereo not shown) [flosequinan, 7-fluoro-1-methyl-3-methylsulphinyl-4-quinolone]",does not affect mortality or arrhythmias,little effect,questionable,useful to some degree,selective inhibitor of phosphodiesterase III,soluble in many organic solvents,water soluble,1 to 2 h,72%,–
Cn1cc(S(C)(=O)=O)c(=O)c2ccc(F)cc21 [metabolite],–,–,–,–,–,–,–,–,–,about seven
